The record followed here is patent publication US12667584B2, “Adenosine analog and its use in regulating the circadian clock” (NATIONAL INSTITUTE OF BIOLOGICAL SCIENCES, BEIJING, priority 2017, dated 2026).

Where two headings read alike, the source gives them in different places.

For one assay, the system named is Per2:luc U2OS cells. As to the kind of experiment: Real-time monitoring of circadian oscillation in lumicycle, Per2:luc U2OS cells. Format: cell-based, human. The following applies: for effect on the clock phase: in words. Here is the method: Cell culture, drug treatment and Real-Time Monitoring of Circadian Oscillations: Per2-Luc reporter U2OS cells (D15) and Bmal1-Luc reporter U2OS cells (C26) cells were kept in DMEM medium (Gibco), supplemented with 10% FBS (Gibco) and 1% penicillin streptomycin mixture (Gibco). For Circadian Oscillation monitored with lumicycle (Actimetrics), cells were seeded at the density of 10^6 per 3.5 cm dish (Z688851-30EA). The medium was changed into XM medium (PH7.2, 10 mM HEPES, 350 mg/I bicarbonate, 1×B27, 100 IU/ml penicillin, 100 μg/ml streptomycin, 10 μg/ml gentamycin, and 100 μM d-Luciferin) 2 days after cell seeding. 3.5 cm dish was then sealed with high-vacuum grease (Dow Corning) and microscope cover glass, and transferred into lumicycle which was placed in an incubator (37° C.). For Drug treatment, 3.5 cm dish was taken out from lumicycle quickly at indicated time. After chemical was added into the medium, the dish was sealed again and put back into lumicycle. For Circadian Oscillation monitored with Tecan (Perkinelmer), cells were seeded at the density of […] per well for 384-well plate (CLS3610-48EA). 2 days later, the medium was changed into premixed XM medium with different chemicals with or without pentostatin (5 μg/ml). The plate was then sealing with sealing film (Sangon Biotech) and put into Tecan. Data from cells were collected in the Tecan luminometer at 37° C. for 5˜7 days.
The inventors conducted a chemical screen using the human osteosarcoma U2OS cell line so as to discover small molecules that modify the phase of the intracellular clock in mammals. In the primary screen, the inventors used two reporter lines of U2OS harboring a luciferase gene under control of either Per2 or Bmal1 promoter (named Per2-dLuc or Bmal1-dLuc cells), and set the threshold for at least 6 h phase-changes with no apparent amplitude-reduction in both cell lines. […] An institutional pilot chemical library consisting of approximately 10,000 small molecules was applied in this study. […] The inventors set to allow a free-run of the clock before administration of the compound over the course in order to eliminate the possibility that this phase-changing phenomenon was due to a combinative phenotype of medium-change plus the compound effect.
Circadian clock is a transcriptional based feedback loop, however different clock genes contain different cis-element and may show different response to the same stimulation. […] Since the close similar structure with adenosine and potential function of inhibiting transcription by preventing mRNA elongation, we tested whether adenosine and other deoxynucleoside could shift circadian phase. […] Therefore we further tested whether cordycepin utilize adenosine transporter to enter cell or utilize adenosine deaminase to degrade.
One prominent character of zeitgeiber is phase dependent function. Therefore, we further tested whether cordycepin also has the character.

The test system of assay [1] is Per2-Luc reporter U2OS cells (D15). As to the kind of experiment: Circadian phase shift cell assay in D15 cells, 384 well plate, Tecan, with or without pentostatin. The following applies: for minimal effective concentration / With Pentostadin Cell Assay: concentration that shifts the circadian phase; for minimal effective concentration: read-out: Cell Assay; for With Pentostadin Cell Assay: pentostatin 5 μg/ml. The format is cell-based, human.

[2] abbreviates: Homo sapiens, U2OS, without pentostatin.

With `Nc1ncnc2c1ncn2[C@@H]1O[C@H](CO)[C@H](O)[C@H]1O` [(3′R)-adenosine, 3′-(R)-adenosine], the “effect on the clock phase” value in the assay with Per2:luc U2OS cells was “can shift circadian phase”.
Still for that read-out and setting: the entry for `Nc1ncnc2c1ccn2[C@@H]1O[C@H](CO)[C@@H](O)[C@H]1O` [7-deazaadenosine, tubercidin] is “can shift circadian phase”.
`Cc1cccc(Cc2nn(C(C)(C)C)c3ncnc(N)c23)c1`: in assay [1] (setting [2]), the minimal effective concentration was found to be 10 µM.
For `Nc1ncnc2c1ncn2[C@@H]1O[C@H](COC(=O)CCCC[C@@H]2SC[C@@H]3NC(=O)N[C@@H]32)CC1OC(=O)CCCC[C@@H]1SC[C@@H]2NC(=O)N[C@@H]21` (some centres unmarked), the minimal effective concentration in assay [1] (setting [2]) was greater than 500 µM. Also, the “With Pentostadin Cell Assay” value in assay [1] amounted to 12.5 µM.
Regarding `O=P(O)(O)OP(=O)(O)OP(=O)(O)OC[C@H]1O[C@@H](n2cnc3c(NCc4ccccc4)ncnc32)[C@H](O)[C@@H]1O`, the minimal effective concentration in assay [1] (setting [2]) turned out to be 10 µM.
For the compound `Nc1nccc2c1ncn2[C@@H]1O[C@H](CO)[C@@H](O)[C@H]1O` [3-deazaadenosine, 3-Deazaadenosine], the “effect on the clock phase” value in the assay on Per2:luc U2OS cells is given as “can shift circadian phase”.
In the case of `OC[C@H]1O[C@@H](n2cnc3c(Cl)cc(Cl)nc32)C(O)C1O` (some centres unmarked), the minimal effective concentration in assay [1] (setting [2]) is 100 µM.
As to `Nc1ncnc2c1nc(Br)n2[C@@H]1O[C@H](CO)C[C@H]1O`, in assay [1] (setting [2]), the minimal effective concentration is greater than 500 µM. The “With Pentostadin Cell Assay” value in assay [1] amounted to 100 µM.
Taken in the same sequence, the figures for `Nc1ncnc2c1ncn2[C@@H]1O[C@H](CO)CC1O` (some centres unmarked) were 25 µM and 0.5 µM.
For `Nc1ncnc2c1c(Br)c(Br)n2[C@@H]1O[C@H](CO)C[C@H]1O`, in that order: greater than 500 µM and 100 µM.
Taken in the same sequence, the figures for `Nc1nccc2c1ncn2[C@@H]1O[C@H](CO)C(O)C1O` (some centres unmarked) were 50 µM and 50 µM.
As for `Nc1ncnc2c1ccn2[C@@H]1O[C@H](CO)C(O)C1O` (some centres unmarked) [drawing 303], the minimal effective concentration in assay [1] (setting [2]) is 0.3 µM. In addition, the “With Pentostadin Cell Assay” value in assay [1] came out at 0.3 µM.
On to `OC[C@H]1O[C@@H](n2cnc3c(NCc4ccccc4)ncnc32)C(O)C1O` (some centres unmarked), for which, in assay [1] (setting [2]), the minimal effective concentration came out at 10 µM. The “With Pentostadin Cell Assay” value in assay [1] is 10 µM.
For the compound `COc1nc(N)c2ncn([C@@H]3O[C@H](CO)C(O)C3O)c2n1` (some centres unmarked), the minimal effective concentration in assay [1] (setting [2]) is greater than 500 µM. In assay [1], the “With Pentostadin Cell Assay” value came out at 100 µM.
As to `Nc1ncnc2c1ncn2[C@@H]1O[C@H](CO)[C@H](O)[C@H]1O` [NQZ-007, 9-(β-D-xylofuranosyl)-adenine], the “concentration of eliciting 12 h phase shift (potency)” value in assay [1] (pentostatin containing medium (5 μg/ml)) stood at 0.2 µM; in assay [1] (without pentostatin) it was 25 µM.
For the compound `Nc1ncnc2c1ncn2[C@@H]1O[C@H](COP(=O)(O)OP(=O)(O)OP(=O)(O)O)CC1O` (some centres unmarked), in assay [1] (setting [2]), the minimal effective concentration turned out to be 100 µM.
Consider `Nc1ncnc2c1ncn2[C@@H]1O[C@H](COC(=O)CCCC[C@@H]2SC[C@@H]3NC(=O)N[C@@H]32)C(O)C1OC(=O)CCCC[C@@H]1SC[C@@H]2NC(=O)N[C@@H]21` (some centres unmarked), for which the minimal effective concentration in assay [1] (setting [2]) was greater than 500 µM. Besides, the “With Pentostadin Cell Assay” value in assay [1] is 25 µM.
`Nc1ncnc2c1ncn2[C@@H]1O[C@H](CO)C2OC21` (some centres unmarked): the minimal effective concentration in assay [1] (setting [2]) was 3 µM.
For `Nc1nc(N)c2ncn([C@@H]3O[C@H](CO)C(O)C3O)c2n1` (some centres unmarked), the minimal effective concentration in assay [1] (setting [2]) is greater than 500 µM. Moreover, in assay [1], the “With Pentostadin Cell Assay” value came to 100 µM.
For `[2H]c1nc(N)c2nc([2H])n([C@@H]3O[C@H](CO)C[C@H]3O)c2n1`, in that order: 25 µM and 12.5 µM.
For the compound `Nc1ncnc2c1c(Br)cn2[C@@H]1O[C@H](CO)[C@H](O)[C@H]1O` [drawing 333], the minimal effective concentration in assay [1] (setting [2]) was greater than 500 µM. Also, the “With Pentostadin Cell Assay” value in assay [1] is 100 µM.
For `Nc1ncnc2c1c(F)c(Br)n2[C@@H]1O[C@H](CO)[C@H](O)[C@H]1O`, in that order: greater than 500 µM and 100 µM.
With `Nc1ncnc2c1ccn2[C@@H]1OC[C@@H](O)[C@H](O)[C@H]1O`, the minimal effective concentration in assay [1] (setting [2]) stood at 100 µM.
`[N-]=[N+]=NC[C@@H]1CC(O)[C@H](n2cnc3c(N)ncnc32)O1` (some centres unmarked): the minimal effective concentration in assay [1] (setting [2]) was found to be 500 µM. In addition, in assay [1], the “With Pentostadin Cell Assay” value was 25 µM.
As for `OC[C@H]1O[C@@H](n2cnc3c2NC=NC[C@H]3O)C[C@@H]1O` [pentostatin], the results for the “effect on the clock phase” value in the assay on Per2:luc U2OS cells and in the assay with Per2:luc U2OS cells (listed as Pentostatin) were “does not affect the clock phase” and “does not affect the clock at all”, respectively.
Turning to `Nc1ncnc2c1c(Br)c(Br)n2[C@@H]1O[C@H](CO)[C@H](O)[C@H]1O`, the minimal effective concentration in assay [1] (setting [2]) is greater than 500 µM. For the same compound, in assay [1], the “With Pentostadin Cell Assay” value was 100 µM.
Taken in the same sequence, the figures for `Nc1ncnc2c1ncn2[C@@H]1O[C@H]([C@H](O)CO)[C@H](O)[C@H]1O` were greater than 500 µM and 200 µM.
As for `OC[C@H]1O[C@@H](n2cnc3c(NC4CC4)ncnc32)C(O)C1O` (some centres unmarked), the minimal effective concentration in assay [1] (setting [2]) worked out at 100 µM.
Take `Nc1ncnc2c1ncn2[C@@H]1O[C@H](CO)CC1OC(=O)CCCC[C@@H]1SC[C@@H]2NC(=O)N[C@@H]21` (some centres unmarked): the minimal effective concentration in assay [1] (setting [2]) is greater than 500 µM. In addition, the “With Pentostadin Cell Assay” value in assay [1] is 1.5 µM.
For `Nc1ncnc2c1nc(Br)n2[C@@H]1O[C@H](CO)[C@H](O)[C@H]1O`, in that order: greater than 500 µM and 100 µM.
Take `Nc1ncnc2c1ncn2[C@@H]1O[C@H](COC(=O)CCCC[C@@H]2SC[C@@H]3NC(=O)N[C@@H]32)CC1O` (some centres unmarked) [drawing 316]: the minimal effective concentration in assay [1] (without pentostatin) was 200 µM.
As for `CCCCCCCC(=O)Nc1ncnc2c1ncn2[C@@H]1O[C@H](CO)[C@H](O)[C@H]1O` [NQZ-163], the “amplitude effect, Per2:luc signal versus control” value in assay [1] (under the concentration of 100 μM) is reported as “more than two fold of control”.
As to `Nc1ncnc2c1c(Br)cn2[C@H]1O[C@H](CO)C[C@H]1O`, in assay [1] (setting [2]), the minimal effective concentration is greater than 500 µM. In assay [1], the “With Pentostadin Cell Assay” value is 200 µM.
`Nc1nc(NC2CC2)c2ncn([C@H]3C=C[C@@H](CO)O3)c2n1`: the minimal effective concentration in assay [1] (setting [2]) was found to be 400 µM.
As to `Nc1nccc2c1ncn2[C@@H]1O[C@H](CO)[C@H](O)[C@H]1O`, the minimal effective concentration in assay [1] (setting [2]) was greater than 500 µM. Also, in assay [1], the “With Pentostadin Cell Assay” value turned out to be 100 µM.
As to `Nc1ncnc2c1ncn2[C@@H]1O[C@H](CO)[C@@H](O)[C@H]1O` [adenosine], the “effect on phase effect induced by cordycepin” value in the assay on Per2:luc U2OS cells (excessive amount) is listed as “inhibits the phase effect induced by cordycepin”. The “effect on the clock phase” value in the assay with Per2:luc U2OS cells is on record as “not”.
